Assay results from patent publication US5556744A, “Methods and compositions for diagnosing and treating certain HIV infected patients” (The Trustees of the University of Pennsylvania, priority 1994, dated 1996).

Key:
Parameters in all cases: species or system human
[1] = test system: maternal sera (antibodies); assay: ELISA peptide-binding of maternal sera (Example 6); conditions: for Number of Non-Transmitters which bound to peptide / Percent of Non-Transmitters which bound to peptide: N = 12; for Number of Transmitters which bound to peptide / Percent of Transmitters which bound to peptide: N = 4
Procedure, shortened: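 HIV-1 envelope peptides averaging 16 amino acids, covering external and transmembrane glycoprotein, were probed by ELISA. Third-trimester maternal sera, classed as transmitter or non-transmitter by child diagnosis, were each run on at least 40 peptides. Values give percent of sera binding a peptide.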

[2] = test system: maternal serum samples (antibodies); assay: ELISA peptide-binding of maternal sera, expanded peptide collection (Example 5); conditions: for Binding / reactivity of maternal sera to peptide (in words): Example 5
Source text: The gp120 and gp41 peptides used in this experiment include peptides 60 [SEQ ID NO:9], 93 [SEQ ID NO:10], 94 [SEQ ID NO:1], 95 [SEQ ID NO:11], 96 [SEQ ID NO:12], 97 [SEQ ID NO:13], 59 [SEQ ID NO:14], 106 [SEQ ID NO:15], 107 [SEQ ID NO:[…]], 1029/33 [SEQ ID NO:2], p18p [SEQ ID NO:17], B138 [SEQ ID NO:3], 466 [SEQ ID NO:4], 497 [SEQ ID NO:18], 117 [SEQ ID NO:19], F560 [SEQ ID NO:20], 35 [SEQ ID NO:5], 120 [SEQ ID NO:21], 121 [SEQ ID NO:22], 123 [SEQ ID NO:23], 36 [SEQ ID NO:24], 40 [SEQ ID NO:25], 41 [SEQ ID NO:26], 649 [SEQ ID NO:6], 53 [SEQ ID NO:7], 55 [SEQ ID NO:27], 128 [SEQ ID NO:28], 129 [SEQ ID NO:29], 132 [SEQ ID NO:30], 57 [SEQ ID NO:8], and 1103/55 [SEQ ID NO:31] from Table 2. These peptides were synthesized based on the same HIV IIIB isolate as were the peptides of Table 2. Alternative designations for these peptides are provided in brackets.
Each of the peptides was at least 85% pure, making them suitable for ELISA analyses. The average length of these peptides was 18 amino acid residues, which allows for a certain degree of local flexibility and conformational folding, thus facilitating detection of antibody species with reactivities to shaped structures.
The maternal serum samples were obtained from the Mothers/Infants Cohort Study described in Example 1. For the ELISA peptide-binding analyses performed essentially as described in Example 3, maternal serum samples were diluted to 1:50 or 1:500 with blocking buffer (1% bovine serum albumin in phosphate-buffered saline containing 0.05% Tween 20). Binding was measured using 10 μg/mL peptide per well and was considered positive if the experimental/control OD450nm ratio was ≥2. Normal (HIV seronegative) human sera were used as controls.

[3] = test system: maternal HIV+ sera (antibodies); assay: RIA / ELISA binding of maternal HIV+ sera to gp120 and gp41 peptides (Example 3)
Procedure, shortened: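 Maternal sera, diluted 1:50 and 1:500, were bound overnight at 4°C to peptides immobilized at 10 μg/ml (pH 9.6 carbonate) and blocked with 1% BSA. Read-out was ¹²⁵I-labelled anti-human IgG counts or HRP-TMB OD450. Signal with peptide minus without was expressed relative to seronegative serum.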

[4] = Serum No. 1, Non-Transmission Group
[5] = Serum No. 2, Non-Transmission Group
[6] = Serum No. 3, Non-Transmission Group
[7] = Serum No. 4, Transmission Group
[8] = Serum No. 5, Transmission Group
[9] = Serum No. 6, Non-Transmission Group
[10] = Serum No. 7, Non-Transmission Group
[11] = Serum No. 8, Non-Transmission Group
[12] = Serum No. 9, Non-Transmission Group
[13] = Serum No. 10, Transmission Group
[14] = Serum No. 11, Non-Transmission Group
[15] = Serum No. 12, Non-Transmission Group
[16] = Serum No. 13, Transmission Group
[17] = Serum No. 14, Transmission Group
[18] = Serum No. 15, Transmission Group
[19] = Serum No. 16, Non-Transmission Group
[20] = Serum No. 17, Non-Transmission Group
[21] = Serum No. 18, Non-Transmission Group
[22] = Serum No. 19, Transmission Group
[23] = Serum No. 20, Non-Transmission Group

## 58: gp41 peptide, amino acids 794-817, HIV strain IIIB, SEQ ID NO: 173 (KYWWNLLQYWSQELKNSAVSLLNA) [Peptide 58]
[1]
  Number of Non-Transmitters which bound to peptide: 3
  Percent of Non-Transmitters which bound to peptide: 25%
  Number of Transmitters which bound to peptide: 0
  Percent of Transmitters which bound to peptide: 0%
[2]
  Binding / reactivity of maternal sera to peptide (in words): recognized by the transmission group

## THACVPTDPNPQEVV [Peptide 95]
[2]
  Binding / reactivity of maternal sera to peptide (in words): Differences in binding between the transmission and non-transmission groups are noted
[3]; 20 maternal sera
  Number of maternal sera binding to peptide: three
[3]; Example 3
  Binding of maternal sera to peptide (in words): Several maternal serum samples had reactivity
[3]; [4]
  Binding of maternal HIV+ serum to peptide (sera/NHS ratio): + (which value is between 2 to 3)
[3]; [5]
  Binding of maternal HIV+ serum to peptide (sera/NHS ratio): - (specific OD450 or cpm of sera sample binding to peptide divided by the specific OD450 or cpm of NHS sample binding to peptide, which value is less than 2)
[3]; [6]
  Binding of maternal HIV+ serum to peptide (sera/NHS ratio): - (specific OD450 or cpm of sera sample binding to peptide divided by the specific OD450 or cpm of NHS sample binding to peptide, which value is less than 2)
[3]; [7]
  Binding of maternal HIV+ serum to peptide (sera/NHS ratio): - (specific OD450 or cpm of sera sample binding to peptide divided by the specific OD450 or cpm of NHS sample binding to peptide, which value is less than 2)
[3]; [8]
  Binding of maternal HIV+ serum to peptide (sera/NHS ratio): - (specific OD450 or cpm of sera sample binding to peptide divided by the specific OD450 or cpm of NHS sample binding to peptide, which value is less than 2)
[3]; [9]
  Binding of maternal HIV+ serum to peptide (sera/NHS ratio): - (specific OD450 or cpm of sera sample binding to peptide divided by the specific OD450 or cpm of NHS sample binding to peptide, which value is less than 2)
[3]; [10]
  Binding of maternal HIV+ serum to peptide (sera/NHS ratio): - (specific OD450 or cpm of sera sample binding to peptide divided by the specific OD450 or cpm of NHS sample binding to peptide, which value is less than 2)
[3]; [11]
  Binding of maternal HIV+ serum to peptide (sera/NHS ratio): - (specific OD450 or cpm of sera sample binding to peptide divided by the specific OD450 or cpm of NHS sample binding to peptide, which value is less than 2)
[3]; [12]
  Binding of maternal HIV+ serum to peptide (sera/NHS ratio): - (specific OD450 or cpm of sera sample binding to peptide divided by the specific OD450 or cpm of NHS sample binding to peptide, which value is less than 2)
[3]; [13]
  Binding of maternal HIV+ serum to peptide (sera/NHS ratio): - (specific OD450 or cpm of sera sample binding to peptide divided by the specific OD450 or cpm of NHS sample binding to peptide, which value is less than 2)
[3]; [14]
  Binding of maternal HIV+ serum to peptide (sera/NHS ratio): + (which value is between 2 to 3)
[3]; [15]
  Binding of maternal HIV+ serum to peptide (sera/NHS ratio): - (specific OD450 or cpm of sera sample binding to peptide divided by the specific OD450 or cpm of NHS sample binding to peptide, which value is less than 2)
[3]; [16]
  Binding of maternal HIV+ serum to peptide (sera/NHS ratio): - (specific OD450 or cpm of sera sample binding to peptide divided by the specific OD450 or cpm of NHS sample binding to peptide, which value is less than 2)
[3]; [17]
  Binding of maternal HIV+ serum to peptide (sera/NHS ratio): ++ (which value is greater than 3)
[3]; [18]
  Binding of maternal HIV+ serum to peptide (sera/NHS ratio): - (specific OD450 or cpm of sera sample binding to peptide divided by the specific OD450 or cpm of NHS sample binding to peptide, which value is less than 2)
[3]; [19]
  Binding of maternal HIV+ serum to peptide (sera/NHS ratio): - (specific OD450 or cpm of sera sample binding to peptide divided by the specific OD450 or cpm of NHS sample binding to peptide, which value is less than 2)
[3]; [20]
  Binding of maternal HIV+ serum to peptide (sera/NHS ratio): - (specific OD450 or cpm of sera sample binding to peptide divided by the specific OD450 or cpm of NHS sample binding to peptide, which value is less than 2)
[3]; [21]
  Binding of maternal HIV+ serum to peptide (sera/NHS ratio): - (specific OD450 or cpm of sera sample binding to peptide divided by the specific OD450 or cpm of NHS sample binding to peptide, which value is less than 2)
[3]; [22]
  Binding of maternal HIV+ serum to peptide (sera/NHS ratio): - (specific OD450 or cpm of sera sample binding to peptide divided by the specific OD450 or cpm of NHS sample binding to peptide, which value is less than 2)
[3]; [23]
  Binding of maternal HIV+ serum to peptide (sera/NHS ratio): - (specific OD450 or cpm of sera sample binding to peptide divided by the specific OD450 or cpm of NHS sample binding to peptide, which value is less than 2)
[3]; vertical transmission group (7 sera)
  Number of binding maternal sera from the transmission group: one

## LAVERYLKDQQLLGI [Peptide 121]
[2]
  Binding / reactivity of maternal sera to peptide (in words): recognized by the transmission group
[3]; [4]
  Binding of maternal HIV+ serum to peptide (sera/NHS ratio): ++ (which value is greater than 3)
[3]; [5]
  Binding of maternal HIV+ serum to peptide (sera/NHS ratio): - (specific OD450 or cpm of sera sample binding to peptide divided by the specific OD450 or cpm of NHS sample binding to peptide, which value is less than 2)
[3]; [6]
  Binding of maternal HIV+ serum to peptide (sera/NHS ratio): - (specific OD450 or cpm of sera sample binding to peptide divided by the specific OD450 or cpm of NHS sample binding to peptide, which value is less than 2)
[3]; [7]
  Binding of maternal HIV+ serum to peptide (sera/NHS ratio): - (specific OD450 or cpm of sera sample binding to peptide divided by the specific OD450 or cpm of NHS sample binding to peptide, which value is less than 2)
[3]; [8]
  Binding of maternal HIV+ serum to peptide (sera/NHS ratio): - (specific OD450 or cpm of sera sample binding to peptide divided by the specific OD450 or cpm of NHS sample binding to peptide, which value is less than 2)
[3]; [9]
  Binding of maternal HIV+ serum to peptide (sera/NHS ratio): ++ (which value is greater than 3)
[3]; [10]
  Binding of maternal HIV+ serum to peptide (sera/NHS ratio): - (specific OD450 or cpm of sera sample binding to peptide divided by the specific OD450 or cpm of NHS sample binding to peptide, which value is less than 2)
[3]; [11]
  Binding of maternal HIV+ serum to peptide (sera/NHS ratio): - (specific OD450 or cpm of sera sample binding to peptide divided by the specific OD450 or cpm of NHS sample binding to peptide, which value is less than 2)
[3]; [12]
  Binding of maternal HIV+ serum to peptide (sera/NHS ratio): - (specific OD450 or cpm of sera sample binding to peptide divided by the specific OD450 or cpm of NHS sample binding to peptide, which value is less than 2)
[3]; [13]
  Binding of maternal HIV+ serum to peptide (sera/NHS ratio): - (specific OD450 or cpm of sera sample binding to peptide divided by the specific OD450 or cpm of NHS sample binding to peptide, which value is less than 2)
[3]; [14]
  Binding of maternal HIV+ serum to peptide (sera/NHS ratio): - (specific OD450 or cpm of sera sample binding to peptide divided by the specific OD450 or cpm of NHS sample binding to peptide, which value is less than 2)
[3]; [15]
  Binding of maternal HIV+ serum to peptide (sera/NHS ratio): - (specific OD450 or cpm of sera sample binding to peptide divided by the specific OD450 or cpm of NHS sample binding to peptide, which value is less than 2)
[3]; [16]
  Binding of maternal HIV+ serum to peptide (sera/NHS ratio): - (specific OD450 or cpm of sera sample binding to peptide divided by the specific OD450 or cpm of NHS sample binding to peptide, which value is less than 2)
[3]; [17]
  Binding of maternal HIV+ serum to peptide (sera/NHS ratio): ++ (which value is greater than 3)
[3]; [18]
  Binding of maternal HIV+ serum to peptide (sera/NHS ratio): ++ (which value is greater than 3)
[3]; [19]
  Binding of maternal HIV+ serum to peptide (sera/NHS ratio): ++ (which value is greater than 3)
[3]; [20]
  Binding of maternal HIV+ serum to peptide (sera/NHS ratio): ++ (which value is greater than 3)
[3]; [21]
  Binding of maternal HIV+ serum to peptide (sera/NHS ratio): ++ (which value is greater than 3)
[3]; [22]
  Binding of maternal HIV+ serum to peptide (sera/NHS ratio): - (specific OD450 or cpm of sera sample binding to peptide divided by the specific OD450 or cpm of NHS sample binding to peptide, which value is less than 2)
[3]; [23]
  Binding of maternal HIV+ serum to peptide (sera/NHS ratio): - (specific OD450 or cpm of sera sample binding to peptide divided by the specific OD450 or cpm of NHS sample binding to peptide, which value is less than 2)
[3]; all 20 samples
  Percent of the maternal serum samples that bound to the peptide: 35%

## 56: gp41 peptide, amino acids 747-767, HIV strain IIIB, SEQ ID NO: 156 (RLVNGSLALIWDDLRSLCLFS) [Peptide 56]
[1]
  Number of Non-Transmitters which bound to peptide: 0
  Percent of Non-Transmitters which bound to peptide: 0%
  Number of Transmitters which bound to peptide: 0
  Percent of Transmitters which bound to peptide: 0%
[2]
  Binding / reactivity of maternal sera to peptide (in words): recognized by the transmission group
[2]; transmission and non-transmission groups
  Percent of both groups that bound to the peptide: more than 50%
